Assay results reported in article PMC6916368, “Cell‐Based Optimization of Covalent Reversible Ketoamide Inhibitors Bridging the Unprimed to the Primed Site of the Proteasome β5 Subunit” (Chemmedchem, 2019).
Numbered stars: 1 amine (or outer) side, 2 acyl side, 3 side chain; on linkers, the order of the positions; unused ones are H or OH. Peptide text beside a SMILES is read from it. * marks the point of attachment. AMC = Cc1cc(=O)oc2cc(N*)ccc12; Suc = O=C(CCC(=O)[*:2])[*:1]; Cbz = O=C(OCc1ccccc1)*; OtBu = CC(C)(C)O*

Assays:
[1] = biological target: T1, β5i subunit of isolated human 20S proteasome (Homo sapiens, UniProt P28062); assay: Proteasome inhibition assay (20 S Proteasome Assay Kit, Suc‐LLVY‐AMC); format: biochemical
T1 construct: purchased Enzo Life Sciences
Summary of the method: (§1)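 Isolated human 20S proteasome (200 ng/well) preincubated 30 min with inhibitor, then 100 μM final Suc-LLVY-AMC (β5c, β5i) or Z-LLE-AMC (β1c) added for 60 min; fluorescence read. Residual activity at 100 nM final (n=3; β5c, β5i) or 1 μM (n=1, incl. β1c). IC50s: technical duplicates, mean of three experiments.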

[2] = biological target: T2, β5c subunit of isolated human 20S proteasome (Homo sapiens, UniProt P28074); assay: as above; format: biochemical
T2 construct: purchased Enzo Life Sciences
Summary of the method: as §1

MV4‐11 cells = assay: Cell viability endpoint assay (Celltiter Blue, 72 h); format: cell-based; conditions: Homo sapiens, MV4-11, mean±SD from two independent experiments
Summary of the method: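 Proteasome inhibitors were tested at 1 nM to 10 μM final on 50.000 cells/well in RPMI-1640 with 0.1 % FBS, plated overnight beforehand, at 37 °C and 5 % CO2. Reagent was incubated 120 minutes before the fluorescence read. IC50 came from a sigmoidal fit of technical triplicates, as the mean of two independent experiments.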

Danio rerio embryos [3] = assay: Danio rerio escape response (neurotoxicity) assay, dechorionated embryos; format: in vivo; conditions: for C-Bend Amplitude, Difference between means / C-Bend duration, Difference between means / Number of movements per 100 ms, Difference between means / Number of total movements, Difference between means: versus control
Description: Danio rerio escape response assay. 24 hours past fertilization embryos were dechorionated and transferred into 96‐well plates containing 198 μL of E3 media at 26 °C. […] Incubation times were 24 h, 48 h and 72 h. Survival of the embryos was determined by visual analysis of heart‐beat. For recording the touch evoked escape response, embryos were transferred to a microscopy slide with cavity that is placed on a SL‐300 LED Soft Light (Dörr, Neu‐Ulm, Germany) under a MotionBlitz EoSens mini1‐1 MC1370 high speed camera (Mikrotron, Unterschleißheim, Germany, Figure S18). An escape response was triggered by a touch stimulus at the trunk of embryos using a small sewing needle, which is slightly blunted. For each embryo, a maximum of 50 stimuli was applied. […] No escape response was determined if only one embryo was alive at 96 hpf. Movement was recorded at 96 hpf at 500 frames per second for 3 seconds using the MotionBlitzDirector 2 software. Determination of the amplitude α defined by the body angle spanned between the head, yolk and tail using a MATLAB‐based software tool and plotted using GraphPad Prism 7.02.

Danio rerio embryos [4] = assay: Danio rerio embryo toxicity assay (not dechorionated); format: in vivo
Description: Danio rerio embryo toxicity assay. Fish keeping protocols are approved by the Darmstadt administrative authority and documented. All fish were treated humanely. […] Embryos were decollated into separate wells containing a total volume of 200 μL and the inhibitor at the given concentration.

[5] = biological target: T3, β2c subunit of isolated human 20S proteasome (Homo sapiens, UniProt Q99436); assay: Proteasome inhibition assay (20 S Proteasome Assay Kit, Bz‐VGR‐AMC); format: biochemical; conditions: c = 1 µM, n=1; read-out: Inhibition cCP β2
T3 construct: purchased Enzo Life Sciences
Summary of the method: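 Isolated 20S proteasome (200 ng/well) was preincubated 30 min with inhibitor, then Bz-VGR-AMC (100 μM final) was added for 60 min and fluorescence read. Single-point residual activity was taken at 100 nM or 1 μM; IC50 was fitted from duplicates, mean of three independent experiments.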

[6] = biological target: T4, β1c subunit of isolated human 20S proteasome (Homo sapiens, UniProt P28072); assay: Proteasome inhibition assay (20 S Proteasome Assay Kit, Z‐LLE‐AMC); format: biochemical; conditions: c = 1 µM, n=1; read-out: Inhibition cCP β1
T4 construct: purchased Enzo Life Sciences
Summary of the method: as §1

[7] = test system: proteasome in MV4‐11 cells; assay: Cellular conversion of fluorogenic proteasome substrates (assay validation); format: cell-based
Description: First, we benchmarked the fluorogenic substrate 30 towards the standard substrate 31 (Suc‐LLVY‐AMC) using varying substrate concentrations and cell numbers of MV4‐11 cells (Figure 5b). The highest substrate conversion was detected using 100 μM 30 in 50.000 cells (135 rfu/min) in MV4‐11 cells and was converted ∼4 times faster than 31 (33.3 rfu/min). There was an increase of differences in conversion rates with smaller number of cells (10.000 cells, 100 μM substrate: 10‐fold conversion) and lower substrate concentration (50.000 cells, 25 μM substrate: 15‐fold conversion).
In‐cell determination of proteasome IC 50. […] Inhibitors were serially diluted in RPMI‐1640 medium as 10‐fold stocks, added to cells giving final concentrations and incubated for 0 h–13 h at 37 °C and 5 % CO2 (Figure S5–S8). Substrate was added to give a final concentration of 30 μM and substrate conversion was detected by fluorescence measurement over 100 min (assay validation) or 60 min (inhibition assays) using a Tecan M1000 microplate reader. Rate of fluorescence change over time was calculated, rates for negative (no‐cell) control was subtracted and normalized to positive control (no inhibitor). Dose‐response curves were fitted to the equation “Y=100/(1+10^((L°^gIC50−X)*HillSl°^pe))” using GraphPad Prism 7.02 (SI chapter 2b, Figure S2–S4).

[8] = 25 μM, 24 h, listed as bortezomib
[9] = 25 μM, 48 h, listed as bortezomib
[10] = 50 μM, 24 h, listed as bortezomib
[11] = 100 μM substrate, 50.000 MV4‐11 cells

CC(C)C[C@H](NC(=O)[C@H](Cc1ccccc1)NC(=O)c1cnccn1)B(O)O [Bortezomib 1, Bortezomib, reference compound]
inhibition at 1 µM ([1]; c = 1 µM, n=1, read-out: Inhibition iCP β5): 98% | inhibition at 0.1 µM ([1]; c=100 nM, read-out: Rel. Inhibition β5i): 85% | inhibition at 1 µM ([2]; c = 1 µM, n=1, read-out: Inhibition cCP β5): 98% | inhibition at 0.1 µM ([2]; c=100 nM, read-out: Rel. Inhibition β5c): 89% | IC50 (MV4‐11 cells): 34 ± 5 nM | Reflex Duration (Danio rerio embryos [3]; 25 µM, 24 h): 540,2 ± 136,6 ms | mean reflexes per stimuli (Danio rerio embryos [3]; 25 µM, 24 h): 8% | C-Bend Amplitude (Danio rerio embryos [3]; 25 μM, 24 h, listed as 1): 131,6 ± 21,3 ° | C-Bend Duration (Danio rerio embryos [3]; 25 μM, 24 h, listed as 1): 32,67 ± 6,489 ms | Number of movements (Danio rerio embryos [3]; 25 μM, 24 h, listed as 1): 11,56 ± 3,33 | Number of movements per 100 ms (Danio rerio embryos [3]; 25 μM, 24 h, listed as 1): 1,916 ± 0,3504 | C-Bend Amplitude (Danio rerio embryos [3]; [8]): 131.6±21.3 ° | C-Bend Duration (Danio rerio embryos [3]; [8]): 32.7 ± 6.5 ms | Number of movements per 100 ms (Danio rerio embryos [3]; [8]): 1.92±0.35 | C-Bend Amplitude, Difference between means (Danio rerio embryos [3]; 25 µM, 24 h): 2,556 ± 25,09 | C-Bend duration, Difference between means (Danio rerio embryos [3]; 25 µM, 24 h): 13 ± 6,633 | Number of movements per 100 ms, Difference between means (Danio rerio embryos [3]; 25 µM, 24 h): -1,559 ± 0,4739 | Reflex Duration (Danio rerio embryos [3]; 25 µM, 48 h): 289,3 ± 198,9 ms | mean reflexes per stimuli (Danio rerio embryos [3]; 25 µM, 48 h): 2% | C-Bend Amplitude (Danio rerio embryos [3]; 25 μM, 48 h, listed as 1): 6,889 ± 5,549 ° | C-Bend Duration (Danio rerio embryos [3]; 25 μM, 48 h, listed as 1): 8,222 ± 6,654 ms | Number of movements (Danio rerio embryos [3]; 25 μM, 48 h, listed as 1): 3,222 ± 2,259 | Number of movements per 100 ms (Danio rerio embryos [3]; 25 μM, 48 h, listed as 1): 0,2435 ± 0,1615 | C-Bend Amplitude (Danio rerio embryos [3]; [9]): 6.9±5.6 ° | Number of movements per 100 ms (Danio rerio embryos [3]; [9]): 0.24±0.32 | C-Bend Amplitude, Difference between means (Danio rerio embryos [3]; 25 µM, 48 h): -122,1 ± 14,37 | Number of movements per 100 ms, Difference between means (Danio rerio embryos [3]; 25 µM, 48 h): -3,231 ± 0,3577 | Number of total movements, Difference between means (Danio rerio embryos [3]; 25 µM, 48 h): -10,89 ± 3,622 | Number of movements per 100 ms (Danio rerio embryos [3]; 50 μM, 24 h): 0±0 | Reflex Duration (Danio rerio embryos [3]; 50 μM, 24 h): 0 ± 0 ms | responses to touch stimuli (Danio rerio embryos [3]; 50 μM, 24 h, 50 stimuli per embryo, 150 stimuli total): 0 | C-Bend Amplitude (Danio rerio embryos [3]; 50 μM, 24 h, listed as 1): 0 ± 0 ° | C-Bend Duration (Danio rerio embryos [3]; 50 μM, 24 h, listed as 1): 0 ± 0 ms | Number of movements (Danio rerio embryos [3]; 50 μM, 24 h, listed as 1): 0 ± 0 | C-Bend Amplitude (Danio rerio embryos [3]; [10]): 0±0 ° | C-Bend Duration (Danio rerio embryos [3]; [10]): 0 ± 0 ms | Number of movements (Danio rerio embryos [3]; [10]): 0 | C-Bend Amplitude, Difference between means (Danio rerio embryos [3]; 50 µM, 24 h): -129 ± 13,26 | C-Bend duration, Difference between means (Danio rerio embryos [3]; 50 µM, 24 h): -19,67 ± 1,374 | Number of movements per 100 ms, Difference between means (Danio rerio embryos [3]; 50 µM, 24 h): -3,475 ± 0,3192 | Number of total movements, Difference between means (Danio rerio embryos [3]; 50 µM, 24 h): -14,11 ± 2,831 | overall survival at low doses (Danio rerio embryos [3]; dechorionated embryos): 92% | Survived (embryos of 4) (Danio rerio embryos [3]; dechorionated, 25 µM, 24 h): 4 | Survived (embryos of 4) (Danio rerio embryos [3]; dechorionated, 25 µM, 48 h): 3 | Survived (embryos of 4) (Danio rerio embryos [3]; dechorionated, 50 µM, 24 h): 4 | treated embryos dead (Danio rerio embryos [3]; dechorionated, 50 μM 48 h to 72 h and 25 μM 72 h): 100% | Survival of embryos (not dechorionated) (Danio rerio embryos [4]; 1 µM, 24 h): 100% | Survival of embryos (not dechorionated) (Danio rerio embryos [4]; 1 µM, 48 h): 100% | Survival of embryos (not dechorionated) (Danio rerio embryos [4]; 1 µM, 72 h): 100% | Survival of embryos (not dechorionated) (Danio rerio embryos [4]; 1 µM, 96 h): 100% | Survival of embryos (not dechorionated) (Danio rerio embryos [4]; 5 µM, 24 h): 100% | Survival of embryos (not dechorionated) (Danio rerio embryos [4]; 5 µM, 48 h): 100% | Survival of embryos (not dechorionated) (Danio rerio embryos [4]; 5 µM, 72 h): 100% | Survival of embryos (not dechorionated) (Danio rerio embryos [4]; 5 µM, 96 h): 80% | Survival of embryos (not dechorionated) (Danio rerio embryos [4]; 10 µM, 24 h): 100% | Survival of embryos (not dechorionated) (Danio rerio embryos [4]; 10 µM, 48 h): 100% | Survival of embryos (not dechorionated) (Danio rerio embryos [4]; 10 µM, 72 h): 100% | Survival of embryos (not dechorionated) (Danio rerio embryos [4]; 10 µM, 96 h): 100% | Survival of embryos (not dechorionated) (Danio rerio embryos [4]; 25 µM, 24 h): 100% | Survival of embryos (not dechorionated) (Danio rerio embryos [4]; 25 µM, 48 h): 100% | Survival of embryos (not dechorionated) (Danio rerio embryos [4]; 25 µM, 72 h): 100% | Survival of embryos (not dechorionated) (Danio rerio embryos [4]; 25 µM, 96 h): 80% | inhibition at 1 µM [5]: 5% | inhibition at 1 µM [6]: 80%

Cc1cc(=O)oc2cc(NC(=O)[C@H](C)NC(=O)[C@H](CC(=O)OC(C)(C)C)NC(=O)[C@H](CC(C)C)NC(=O)OCc3ccccc3)ccc12 [Compound 30, Z‐LD(OtBu)A‐AMC] (Cbz-Leu-Asp(OtBu)-Ala-{AMC})
conversion of 30 relative to 31 [7, 11]: ~4 times | substrate conversion [7, 11]: 135 rfu/min | conversion of 30 relative to 31 ([7]; 10.000 cells, 100 μM substrate): 10 fold | conversion of 30 relative to 31 ([7]; 50.000 cells, 25 μM substrate): 15 fold

Cc1cc(=O)oc2cc(NC(=O)[C@H](Cc3ccc(O)cc3)NC(=O)[C@@H](NC(=O)[C@H](CC(C)C)NC(=O)[C@H](CC(C)C)NC(=O)CCC(=O)O)C(C)C)ccc12 [Compound 31, Suc‐LLVY‐AMC] (Suc-LLVY-{AMC})
substrate conversion [7, 11]: 33.3 rfu/min
